Measurements as given in ChEMBL document CHEMBL5120831, “Pep5-based antitumor peptides containing multifunctional fragments with enhanced activity and synergistic effect” (Eur J Med Chem, 2022).
Calls of active or inactive are those of the source. The calls are words filed in the database; no cut-off is given here. Bridge positions count the residues as written; N and C are the ends. Peptide text beside a SMILES is read from it. I, II: the chains in the order shown.

Columns and labels:
HepG2 [1] = assay: Antitumor activity against human HepG2 cells xenografted in BALB/c nude mouse assessed as reduction in tumor volume at 25 to 50 uM, sc administered at 1 day interval for 9 days; assay type: functional, organism-based; conditions: dose 25-50 µM, time 9.0 day
A549 [2] = assay: Induction of apoptosis in human A549 cells assessed as increase in necrotic cells at 15 uM measured after 24 hrs by Annexin V-FITC/propidium iodide staining based flow cytometry; assay type: functional, cell-based
BEAS-2B = assay: Induction of apoptosis in human BEAS-2B cells assessed as reduction in viable cells at 15 uM measured after 24 hrs by Annexin V-FITC/propidium iodide staining based flow cytometry; assay type: toxicity, cell-based
HepG2 [3] = assay: Induction of morphological changes in human HepG2 cells assessed as appearance of abnormal cell morphology at 15 uM measured after 24 hrs by high-throughput microscopy; assay type: functional, cell-based
A549 [4] = assay: Cytotoxicity against human A549 cells assessed as reduction in cell viability measured after 24 hrs by CCK-8 assay; assay type: functional, cell-based; conditions: for IC50: A549, 24 h
A549 [5] = assay: Induction of cell membrane disruption in human A549 cells assessed as increase in LDH release at 15 uM measured after 1 hr by LDH releasing reagent based assay
L02 = assay: Induction of apoptosis in human L02 cells assessed as reduction in viable cells at 15 uM measured after 24 hrs by Annexin V-FITC/propidium iodide staining based flow cytometry; assay type: toxicity, cell-based; conditions: l02, 24 h
HepG2 [6] = assay: Antitumor activity against human HepG2 cells xenografted in BALB/c nude mouse assessed as missing nuclei at 25 to 50 uM, sc administered at 1 day interval for 9 days and measured on day 11 by H and E staining based histological analysis; assay type: functional, organism-based; conditions: dose 25-50 µM, time 11.0 day
HepG2 [7] = assay: Induction of cell membrane disruption in human HepG2 cells assessed as increase in LDH release at 15 uM measured after 1 hr by LDH releasing reagent based assay
[8] = Cytotoxicity against human L02 cells assessed as reduction in cell viability measured after 24 hrs by CCK-8 assay; assay type: toxicity, cell-based
HepG2 [9] = assay: Antitumor activity against human HepG2 cells xenografted in sc dosed BALB/c nude mouse assessed as tumor growth inhibition administered at 1 day interval for 9 days; assay type: functional, organism-based; conditions: dose 25-50 µM, time 9.0 day, DDE = dose-dependent effect
HepG2 [10] = assay: Antitumor activity against human HepG2 cells xenografted in BALB/c nude mouse assessed as appearance of fuzzy boundary region at 25 to 50 uM, sc administered at 1 day interval for 9 days and measured on day 11 by H and E staining based histological analysis; assay type: functional, organism-based; conditions: dose 25-50 µM, time 11.0 day
HepG2 [11] = assay: Induction of apoptosis in human HepG2 cells assessed as increase in necrotic cells at 15 uM measured after 24 hrs by Annexin V-FITC/propidium iodide staining based flow cytometry; assay type: functional, cell-based
A549 [12] = assay: Induction of apoptosis in human A549 cells assessed as increase in late apoptotic cells at 15 uM measured after 24 hrs by Annexin V-FITC/propidium iodide staining based flow cytometry; assay type: functional, cell-based
[13] = Toxicity in HepG2 cell xenografted BALB/c nude mouse assessed as change in body weight at 25 to 50 uM, sc administered at 1 day interval for 9 days; assay type: organism-based; conditions: in vivo, 216 h, dose 25-50 µM, time 9 day
HepG2 [14] = assay: Induction of apoptosis in human HepG2 cells assessed as increase in late apoptotic cells at 15 uM measured after 24 hrs by Annexin V-FITC/propidium iodide staining based flow cytometry; assay type: functional, cell-based
HepG2 [15] = assay: Antitumor activity against human HepG2 cells xenografted in BALB/c nude mouse assessed as induction of apoptosis at 25 to 50 uM, sc administered at 1 day interval for 9 days and measured on day 11 by TUNEL staining based assay; assay type: functional, organism-based; conditions: dose 25-50 µM, time 11.0 day
[16] = Cytotoxicity against human BEAS-2B cells assessed as reduction in cell viability measured after 24 hrs by CCK-8 assay; assay type: toxicity, cell-based
HepG2 [17] = assay: Cytotoxicity against human HepG2 cells assessed as reduction in cell viability measured after 24 hrs by CCK-8 assay; assay type: functional, cell-based; conditions: for IC50: HepG2, 24 h
HepG2 [18] = assay: Induction of morphological changes in human HepG2 cells assessed as decrease in cell number at 15 uM measured after 24 hrs by high-throughput microscopy; assay type: functional, cell-based
HepG2 [19] = assay: Induction of apoptosis in human HepG2 cells assessed as reduction in viable cells at 15 uM measured after 24 hrs by Annexin V-FITC/propidium iodide staining based flow cytometry; assay type: functional, cell-based
A549 [20] = assay: Induction of apoptosis in human A549 cells assessed as reduction in viable cells at 15 uM measured after 24 hrs by Annexin V-FITC/propidium iodide staining based flow cytometry; assay type: functional, cell-based
HepG2 [21] = assay: Induction of ROS generation in human HepG2 cells at 10 to 30 uM measured after 4 hrs by DCFH-DA reagent based fluorescence assay; assay type: functional, cell-based; conditions: dose 10-30 µM
HepG2 [22] = assay: Induction of apoptosis in human HepG2 cells assessed as chromatin condensation at 15 uM measured after 24 hrs by transmission electron microscopy; assay type: functional, cell-based
HepG2 [23] = assay: Induction of morphological changes in human HepG2 cells assessed as appearance of broken cell structure at 15 uM measured after 24 hrs by high-throughput microscopy; assay type: functional, cell-based
A549 [24] = assay: Induction of necrosis in human A549 cells assessed as releasing of large number of cell content into extracellular space at 30 uM measured after 24 hrs by transmission electron microscopy; assay type: functional, cell-based
HepG2 [25] = assay: Induction of apoptosis in human HepG2 cells assessed as hollow mitochondria at 15 uM measured after 24 hrs by transmission electron microscopy; assay type: functional, cell-based
A549 [26] = assay: Induction of apoptosis in human A549 cells assessed as cell membrane disruption at 15 uM measured after 24 hrs by transmission electron microscopy; assay type: functional, cell-based
A549 [27] = assay: Induction of apoptosis in human A549 cells assessed as chromatin condensation at 15 uM measured after 24 hrs by transmission electron microscopy; assay type: functional, cell-based
A549 [28] = assay: Induction of necrosis in human A549 cells assessed as cell membrane disruption at 30 uM measured after 24 hrs by transmission electron microscopy; assay type: functional, cell-based
HepG2 [29] = assay: Induction of necrosis in human HepG2 cells assessed as cell membrane disruption at 30 uM measured after 24 hrs by transmission electron microscopy; assay type: functional, cell-based
A549 [30] = assay: Induction of apoptosis in human A549 cells assessed as swollen mitochondria at 15 uM measured after 24 hrs by transmission electron microscopy; assay type: functional, cell-based
HepG2 [31] = assay: Induction of apoptosis in human HepG2 cells assessed as swollen mitochondria at 15 uM measured after 24 hrs by transmission electron microscopy; assay type: functional, cell-based
A549 [32] = assay: Induction of apoptosis in human A549 cells assessed as appearance of apoptotic bodies at 15 uM measured after 24 hrs by transmission electron microscopy; assay type: functional, cell-based
A549 [33] = assay: Induction of apoptosis in human A549 cells assessed as hollow mitochondria at 15 uM measured after 24 hrs by transmission electron microscopy; assay type: functional, cell-based
HepG2 [34] = assay: Induction of apoptosis in human HepG2 cells assessed as cell membrane disruption at 15 uM measured after 24 hrs by transmission electron microscopy; assay type: functional, cell-based
HepG2 [35] = assay: Induction of apoptosis in human HepG2 cells assessed as appearance of apoptotic bodies at 15 uM measured after 24 hrs by transmission electron microscopy; assay type: functional, cell-based
HepG2 [36] = assay: Induction of necrosis in human HepG2 cells assessed as releasing of large number of cell content into extracellular space at 30 uM measured after 24 hrs by transmission electron microscopy; assay type: functional, cell-based
Proteasome = assay: Inhibition of proteasome activity in human A549 cells measured after 4 hrs by luciferase assay; conditions: dose 5-30 µM, DDE = dose-dependent effect

Compound | Activity (HepG2 [1]) | Activity (BEAS-2B) | IC50 (A549 [4]) [µM] | Activity (A549 [5]) | Activity (L02) | Activity (HepG2 [6]) | Activity (HepG2 [7]) | IC50 at 24 h [8] [µM] | TGI (HepG2 [9]) | Activity (HepG2 [10]) | Activity [13] | Activity (HepG2 [15]) | IC50 at 24 h [16] [µM] | IC50 (HepG2 [17]) [µM] | also measured
CC(C)C[C@H](NC(=O)[C@H](CCCCN)NC(=O)CNC(=O)[C@H](CC(C)C)NC(=O)[C@@H](NC(=O)[C@@H](NC(=O)[C@H](CC(C)C)NC(=O)[C@H](CCC(=O)O)NC(=O)[C@@H](N)Cc1c[nH]c2ccccc12)C(C)C)C(C)C)C(=O)N[C@@H](Cc1ccc(O)cc1)C(=O)NCC(=O)N[C@@H](CCCNC(=N)N)C(=O)N[C@@H](CCCCN)C(=O)N[C@@H](CCCCN)C(=O)N[C@@H](CCCNC(=N)N)C(=O)N[C@@H](CCCNC(=N)N)C(=O)N[C@@H](CCC(N)=O)C(=O)N[C@@H](CCCNC(=N)N)C(=O)N[C@@H](CCCNC(=N)N)C(=O)N[C@@H](CCCNC(=N)N)C(=O)O (H-WELVVLGKLYGRKKRRQRRR-OH) | Active | Non-Toxic | 30.9 | Active | Non-Toxic | Active | Active | 63.9 | Dde | Active | Non-Toxic | Active | 32.9 | 31.2 | Activity (A549 [2]): Active; Activity (HepG2 [3]): Active; Activity (A549 [4]; DDE = dose-dependent effect): Dde; Activity (HepG2 [11]): Active; Activity (A549 [12]): Active; Activity (HepG2 [14]): Active; Activity (HepG2 [17]; DDE = dose-dependent effect): Dde; Activity (HepG2 [18]): Active
CC[C@H](C)[C@H](NC(=O)[C@H](CCCCN)NC(=O)[C@H](CC(N)=O)NC(=O)[C@H](CCCNC(=N)N)NC(=O)[C@H](Cc1ccccc1)NC(=O)[C@H](CCCCN)NC(=O)[C@H](CCCNC(=N)N)NC(=O)[C@H](CC(C)C)NC(=O)[C@H](CCCNC(=N)N)NC(=O)[C@H](CCCCNC(=O)[C@H](CCCCN)NC(=O)[C@H](CCC(=O)O)NC(=O)[C@H](CCCCN)NC(=O)[C@@H](NC(=O)[C@H](CCCCN)NC(=O)[C@H](CC(N)=O)NC(=O)[C@H](CCCNC(=N)N)NC(=O)[C@H](Cc1ccccc1)NC(=O)[C@H](CCCCN)NC(=O)[C@H](CCCNC(=N)N)NC(=O)[C@H](CC(C)C)NC(=O)[C@H](CCCNC(=N)N)NC(=O)[C@H](CCCCN)NC(=O)[C@H](CCCNC(=N)N)NC(=O)[C@H](CC(C)C)NC(=O)CN)[C@@H](C)CC)NC(=O)[C@H](CCCNC(=N)N)NC(=O)[C@H](CC(C)C)NC(=O)CN)C(=O)N[C@@H](CCCCN)C(=O)N[C@@H](CCC(=O)O)C(=O)N[C@@H](CCCCN)C(=O)O (I: H-GLRKRLRKFRNKIKEK / II: H-GLRKRLRKFRNKIKEK-OH; amide I:C-II:4) | – | Non-Toxic | 56.2 | Active | Non-Toxic | – | Active | 70.7 | – | – | – | – | 93.6 | 34.8 | Activity (HepG2 [19]): Active; Activity (A549 [20]): Active
I: H-WELVVLGKLLLHHLLHHLLHHGLRKRLRKFRNKIKEK / II: H-GLRKRLRKFRNKIKEK-NH2 (amide I:C-II:4) | Active | Non-Toxic | 6.41 | Active | Non-Toxic | Active | Active | 11.1 | Dde | Active | Non-Toxic | Active | 11.2 | 7.77 | Activity (HepG2 [21]): Active; Activity (HepG2 [22]): Active; Activity (HepG2 [23]): Active; Activity (A549 [24]): Active; Activity (HepG2 [25]): Active; Activity (A549 [26]): Active; Activity (A549 [27]): Active; Activity (A549 [28]): Active; Activity (HepG2 [29]): Active; Activity (A549 [30]): Active; Activity (HepG2 [31]): Active; Activity (A549 [32]): Active; Activity (A549 [33]): Active; Activity (HepG2 [34]): Active; Activity (HepG2 [35]): Active; Activity (HepG2 [36]): Active; inhibition (Proteasome): Dde
